Data on 54 molecules can be found in PubChem BioAssay AID1195 (EPA DSSTox, 2008).

The structures appear in SMILES notation.

In the data set the test system is human maximum recommended daily dose, FDA database. Description: DSSTox (FDAMDD) FDA Maximum (Recommended) Daily Dose Database. The settings on record: active compounds read low. The text has this:
The Food and Drug Administration (FDA) Center for Drug Evaluation and Research, Office of Pharmaceutical Science, Informatics and Computational Safety Analysis Staff's Maximum Recommended Daily Dose (FDAMDD) database contains values for over 1200 pharmaceuticals listed in Martindale: The Extra Pharmacopoeia (1973, 1983, and 1993) and The Physicians' Desk Reference (1995 and 1999). Some classes of chemicals were excluded from the FDAMDD database due to their unsuitability for most QSAR modeling programs. These were inorganic chemicals, high molecular weight polymers (>5000 Daltons), fibers, salts, mixtures of organic chemicals, and small molecules (<100 Daltons). FDAMDD is the non-proprietary portion of the database that was used in the QSAR analysis reported in the Main Citation. DSSTox FDAMDD has fewer substance records than the original MRDD Source database due to consolidation of partial structures (i.e., complexed entities) into a single record and elimination of duplicate entries. DSSTox FDAMDD also differs from the MRDD Source database in presenting complete structural information pertaining to the actual salt or complexed form corresponding to the listed ChemicalName and CASRN. According to the Source authors, there are a number of cases where multiple related forms or derivatives of a drug were listed as separate records but were assumed to fall under the same clinical toxicity assessment and, therefore, assigned the same Dose_MRDD_mg activity value. For the DSSTox FDAMDD, we have labeled these derivatives in the ChemClass_MRDD_grouping field and provide their counts in the ChemicalReplicateCount field to highlight their special nature.
Maximum recommended daily dose (or maximum recommended therapeutic dose) values were determined from pharmaceutical clinical trials that employed an oral route of exposure and daily treatments, usually for 3-12 months. Drugs were given as single or divided dose treatment regimens to achieve desired pharmacological effects. Roughly 5% of the pharmaceuticals in the FDAMDD data file were antineoplastics and anesthetics and were administered intravenously and/or intramuscularly. When separate MRDDs were reported for different routes of exposure, only the oral MRDD was included in the data file and only MRDD values reported for the average adult patient were used. Pharmaceuticals that are administered orally are usually tested over a limited range of doses and have MRDDs reported as mg/day. The mg/day unit was converted to mg/kg-body weight (bw)/day based upon an average adult weighing 60 kg. In contrast, the dose unit for most antineoplastic drug MRDDs is reported as mg/m2 which was converted to mg/kg-bw/day using the formula mg/kg-bw/day = mg/m2/37 for an average adult. Additionally, a few drugs had MRDDs reported in parts per million (ppm) which were converted to mg/kg-bw/day on the basis that 1000 ppm equals 25 mg/kg-bw/day for an average 60 kg adult. Activity Score is mapping of LOG10(1/Dose_MRDD_mmol) spanning activity range [MIN, MAX] onto Integer 1-100 Activity range, where 100 is highest potency and 1 is lowest potency: ActivityScore = 100 * INTEGER[(LOGINV_MRDD_mmol - MIN)/(MAX […] MIN)]. Activity Outcome is "active" for all substances, since Dose_MRDD_mmol is reported for all substances.

Setting [1] is: TherapeuticCategory: antibacterial.
Setting [2] is: TherapeuticCategory: peripheral vasodilator.
Where [3] appears, read: TherapeuticCategory: antineoplastic.
[4] abbreviates: TherapeuticCategory: diagnostic aid.
Setting [5] is: TherapeuticCategory: anti inflammatory.
[6] abbreviates: TherapeuticCategory: glucocorticoid.
[7] abbreviates: TherapeuticCategory: sedative, hypnotic.
[8] abbreviates: TherapeuticCategory: analgesic, antipyretic, anti inflammatory.

As for `NC[C@H]1O[C@H](O[C@H]2[C@H](O)[C@@H](O[C@H]3O[C@H](CO)[C@@H](O)[C@H](N)[C@H]3O)[C@H](N)C[C@@H]2N)[C@H](N)[C@@H](O)[C@@H]1O`, the maximum recommended daily dose (mmol/kg-bw/day) under setting [1] is 0.031.

For `CN1CCCN=C1COC(=O)C(O)(c1ccccc1)C1CCCCC1` (centres undefined), the maximum recommended daily dose (mmol/kg-bw/day) (TherapeuticCategory: anticholinergic) is 0.00145.

Take `CN(C)[C@@H]1C(=O)C(C(N)=O)=C(O)[C@@]2(O)C(=O)C3=C(O)c4c(O)cccc4[C@@](C)(O)[C@H]3[C@H](O)[C@@H]12`: the maximum recommended daily dose (mmol/kg-bw/day) under setting [1] is 0.0671.

As to `CCCCN(CCCC)CCNc1nc(-c2ccccc2)no1`, the maximum recommended daily dose (mmol/kg-bw/day) under setting [2] was 0.0126.

On to `CCC(=O)O[C@H]1CC[C@H]2[C@@H]3CC[C@H]4CC(=O)[C@H](C)C[C@]4(C)[C@H]3CC[C@]12C`, for which the maximum recommended daily dose (mmol/kg-bw/day) under setting [3] is 0.00463.

On to `C[C@]12CC[C@@H]3c4ccc(OS(=O)(=O)O)cc4CC[C@H]3[C@@H]1CCC2=O`, for which, for the setting “TherapeuticCategory: estrogen”, the maximum recommended daily dose (mmol/kg-bw/day) was 0.000107.

With `COc1ncnc(NS(=O)(=O)c2ccc(N)cc2)c1OC`, under setting [1], the maximum recommended daily dose (mmol/kg-bw/day) is 0.0806.

For the molecule `COc1ccc(OC)c(C(O)CNC(=O)CN)c1` (centres undefined), the maximum recommended daily dose (mmol/kg-bw/day) (TherapeuticCategory: adrenergic, antihypotensive) was 0.000983.

For `CCN(CC)C(=O)N[C@H]1C=C2c3cccc4[nH]cc(c34)C[C@H]2N(C)C1`, the maximum recommended daily dose (mmol/kg-bw/day) (TherapeuticCategory: antimigraine, prolactin inhibitor) is 0.000246.

`CCOc1ccccc1OCCN[C@H](C)Cc1ccc(OC)c(S(N)(=O)=O)c1`: for the setting “TherapeuticCategory: alpha 1A androceptor antagonist”, the maximum recommended daily dose (mmol/kg-bw/day) is 3.26e-05.

Turning to `CC(CCc1ccccc1)NCC(O)c1ccc(O)c(C(N)=O)c1` (centres undefined), the maximum recommended daily dose (mmol/kg-bw/day) (TherapeuticCategory: antihypertensive) was 0.122.

As for `CCCCCCCCCCCCCCCC(=O)OCC(=O)[C@@]1(O)[C@H](C)C[C@H]2[C@@H]3CCC4=CC(=O)C=C[C@]4(C)[C@@]3(F)[C@@H](O)C[C@@]21C`, the maximum recommended daily dose (mmol/kg-bw/day) (TherapeuticCategory: glucocorticoid, anti inflammatory) is 0.000238.

For the molecule `CN1CCC(=C2c3ccccc3CCc3cccnc32)CC1`, under “TherapeuticCategory: antihistaminic”, the maximum recommended daily dose (mmol/kg-bw/day) was 0.000115.

Regarding `CN(CCO)CC(O)Cn1cnc2c1c(=O)n(C)c(=O)n2C` (centres undefined) (tested in a mixture with another compound), the maximum recommended daily dose (mmol/kg-bw/day) under setting [2] is 0.0575.

For `CC(=O)Nc1c(I)cc(I)c(C(=O)O)c1I`, the maximum recommended daily dose (mmol/kg-bw/day) under setting [4] was 0.18.

As to `Nc1nnc(-c2cccc(Cl)c2Cl)c(N)n1`, the maximum recommended daily dose (mmol/kg-bw/day) (TherapeuticCategory: anticonvulsant) was 0.026.

Turning to `CC1(C)[C@H](C(=O)O)N2C(=O)C[C@H]2S1(=O)=O`, the maximum recommended daily dose (mmol/kg-bw/day) (TherapeuticCategory: combination to form antibacterial) is 0.286.

With `CC1=C(C/C=C(\C)CCC[C@H](C)CCC[C@H](C)CCCC(C)C)C(=O)c2ccccc2C1=O`, the maximum recommended daily dose (mmol/kg-bw/day) (TherapeuticCategory: prothrombogenic vitamin) is 0.000925.

In the case of `C[C@H](N)Cc1ccccc1`, the maximum recommended daily dose (mmol/kg-bw/day) (TherapeuticCategory: CNS stimulant, anorexic) is 0.0074.

Turning to `CC(C(=O)O)c1ccc(C(=O)c2ccccc2)s1` (centres undefined), the maximum recommended daily dose (mmol/kg-bw/day) under setting [5] is 0.0384.

For `CC(C(=O)O)c1ccc(N2CC=CC2)c(Cl)c1` (centres undefined), the maximum recommended daily dose (mmol/kg-bw/day) under setting [5] was 0.0528.

Consider `COc1ccc([C@@H]2Sc3ccccc3N(CCN(C)C)C(=O)[C@@H]2OC(C)=O)cc1`, for which the maximum recommended daily dose (mmol/kg-bw/day) (TherapeuticCategory: antianginal) is 0.0193.

For `CC(=O)OC[C@H]1O[C@@H](n2ncc(=O)[nH]c2=O)[C@H](OC(C)=O)[C@@H]1OC(C)=O`, the maximum recommended daily dose (mmol/kg-bw/day) (TherapeuticCategory: antineoplastic, antipsoriatic) is 0.458.

Take `OC[C@H]1OC(O)[C@H](O)[C@@H](O)[C@H]1O` (some centres undefined): the maximum recommended daily dose (mmol/kg-bw/day) (TherapeuticCategory: diagnostic aid, hepatic function) is 0.555.

For the molecule `CC1(O)CCC(C(C)(C)O)CC1` (centres undefined), for the setting “TherapeuticCategory: cis form hydrate as expectorant”, the maximum recommended daily dose (mmol/kg-bw/day) was 0.116.

As for `CC(=O)OCC1=C(C(=O)O)N2C(=O)[C@@H](NC(=O)CC#N)[C@H]2SC1`, the maximum recommended daily dose (mmol/kg-bw/day) under setting [1] was 0.295.

For `C[C@]12C=CC(=O)C=C1CC[C@@H]1[C@@H]2[C@@H](O)C[C@@]2(C)[C@H]1CC[C@]2(O)C(=O)COC(=O)CCC(=O)O`, under setting [6], the maximum recommended daily dose (mmol/kg-bw/day) is 0.0069.

As for `CCOC(=O)CCCCCCCCC(C)c1cccc(I)c1` (centres undefined), under setting [4], the maximum recommended daily dose (mmol/kg-bw/day) is 0.3.

On to `Cc1cn([C@H]2C[C@H](O)[C@@H](CO)O2)c(=O)[nH]c1=O`, for which the maximum recommended daily dose (mmol/kg-bw/day) (TherapeuticCategory: none) was 0.413.

Consider `C[C@H]1C[C@@H]2[C@H]([C@@H](O)C[C@@]3(C)[C@H]2CC[C@]3(O)C(=O)COC(=O)CCC(=O)O)[C@@]2(C)C=CC(=O)C=C12`, for which the maximum recommended daily dose (mmol/kg-bw/day) under setting [6] is 0.0084.

Turning to `CC[C@]1(O)C[C@H]2CN(CCc3c([nH]c4ccccc34)[C@@](C(=O)OC)(c3cc4c(cc3OC)N(C)[C@H]3[C@@](O)(C(N)=O)[C@H](O)[C@]5(CC)C=CCN6CC[C@]43[C@@H]65)C2)C1`, the maximum recommended daily dose (mmol/kg-bw/day) under setting [3] was 0.000143.

On to `CCOc1ccccc1C(N)=O`, for which the maximum recommended daily dose (mmol/kg-bw/day) (TherapeuticCategory: analgesic) is 0.404.

Consider `CCC(Br)(CC)C(=O)NC(N)=O`, for which the maximum recommended daily dose (mmol/kg-bw/day) under setting [7] was 0.0704.

Regarding `CC(C)C[C@H](N)C(=O)O`, the maximum recommended daily dose (mmol/kg-bw/day) (TherapeuticCategory: nutrient) is 0.762.

With `Cc1c(-c2ccccc2)n(/N=N/n2c(-c3ccccc3)c(C)[n+]3ccccc23)c2cccc[n+]12`, for the setting “TherapeuticCategory: skeletal muscle relaxant”, the maximum recommended daily dose (mmol/kg-bw/day) was 0.00165.

On to `C[C@]12CCC(=O)C=C1CC[C@H]1[C@@H]3CC[C@](O)(C(=O)CO)[C@@]3(C)C[C@H](O)[C@@]12F`, for which the maximum recommended daily dose (mmol/kg-bw/day) (TherapeuticCategory: mineralcorticoid) was 4.39e-06.

On to `CCOc1ccc2nc(S(N)(=O)=O)sc2c1`, for which the maximum recommended daily dose (mmol/kg-bw/day) (TherapeuticCategory: carbonic anhydrase inhibitor, diuretic) is 0.0322.

With `CC(C)(C)c1ccc(CN2CCN(C(c3ccccc3)c3ccc(Cl)cc3)CC2)cc1` (centres undefined), the maximum recommended daily dose (mmol/kg-bw/day) (TherapeuticCategory: antiemetic) was 0.00577.

On to `Cc1noc(NS(=O)(=O)c2ccc(N)cc2)c1C`, for which the maximum recommended daily dose (mmol/kg-bw/day) under setting [1] is 0.25.

Turning to `NS(=O)(=O)c1cc(C(=O)O)c(NCc2ccco2)cc1Cl`, the maximum recommended daily dose (mmol/kg-bw/day) (TherapeuticCategory: diuretic, antihypertensive) is 0.0302.

On to `C#CC(O)(/C=C\Cl)CC` (centres undefined), for which, under setting [7], the maximum recommended daily dose (mmol/kg-bw/day) was 0.115.

Turning to `CCCCC(C(=O)O)C(=O)N(Nc1ccccc1)c1ccccc1` (centres undefined), under setting [8], the maximum recommended daily dose (mmol/kg-bw/day) was 0.0337.

Take `CNC1(c2ccccc2Cl)CCCCC1=O` (centres undefined): the maximum recommended daily dose (mmol/kg-bw/day) (TherapeuticCategory: anesthetic) is 0.00841.

Consider `CCOC(=O)Nc1ccc2c(c1)N(C(=O)CCN1CCOCC1)c1ccccc1S2`, for which the maximum recommended daily dose (mmol/kg-bw/day) (TherapeuticCategory: antiarrhythmic) is 0.0351.

As to `O=c1cc[nH]c(=S)[nH]1`, the maximum recommended daily dose (mmol/kg-bw/day) (TherapeuticCategory: thyroid depressant) was 0.026.

`CC(C)(N)Cc1ccc(Cl)cc1`: the maximum recommended daily dose (mmol/kg-bw/day) (TherapeuticCategory: anorexic) is 0.00588.

With `Nc1nc(N)c2nc(CNc3ccc(C(=O)NC(CCC(=O)O)C(=O)O)cc3)cnc2n1` (centres undefined), the maximum recommended daily dose (mmol/kg-bw/day) (TherapeuticCategory: rodenticide) was 1.89e-05.

As to `Cc1nnc(NS(=O)(=O)c2ccc(N)cc2)s1`, the maximum recommended daily dose (mmol/kg-bw/day) under setting [1] was 0.247.

With `N[C@@H]1[C@@H](O)[C@H](O)[C@@H](CO)O[C@H]1O`, the maximum recommended daily dose (mmol/kg-bw/day) (TherapeuticCategory: antiarthritic) was 0.558.

As for `CC[C@H](OC(C)=O)C(C[C@H](C)N(C)C)(c1ccccc1)c1ccccc1`, the maximum recommended daily dose (mmol/kg-bw/day) (TherapeuticCategory: treatment of narcotic addiction) was 0.0113.

As for `CN1c2cc(O)c(N=NC(N)=O)cc2CC1S(=O)(=O)O` (centres undefined), the maximum recommended daily dose (mmol/kg-bw/day) (TherapeuticCategory: hemostatic) was 0.00931.

Consider `CC(=O)Oc1ccccc1C(=O)O`, for which, under setting [8], the maximum recommended daily dose (mmol/kg-bw/day) was 0.37.

With `C#C[C@]1(O)CC[C@H]2[C@@H]3CCC4=CC(=O)CCC4=C3C=C[C@@]21CC`, the maximum recommended daily dose (mmol/kg-bw/day) (TherapeuticCategory: antigonadotropin) was 0.000135.

For the molecule `COC(=O)C1=C(C)NC(C)=C(C(=O)OCC(C)C)C1c1ccccc1[N+](=O)[O-]` (centres undefined), for the setting “TherapeuticCategory: antihypertensive, antianginal”, the maximum recommended daily dose (mmol/kg-bw/day) was 0.00172.
